Measurements as given in PubChem BioAssay (NCI).
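Each compound was tested at five concentrations against cells in 96-well plates for 48 hours. TGI marks complete inhibition of growth.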

Columns and labels:
Experiment in all cases: NCI tumour cell line growth inhibition, 48 h
[1] = system: SNB-19 CNS
[2] = system: SF-539 CNS
[3] = system: NCI-H226 lung
[4] = system: 786-0 renal
[5] = system: M14 melanoma
[6] = system: U251 CNS
[7] = system: UACC-257 melanoma
[8] = system: UO-31 renal
[9] = system: MCF7 breast
[10] = system: OVCAR-8 ovarian

Row | Structure (SMILES) | TGI [1] [µM] | TGI [2] [µM] | TGI [3] [µM] | TGI [4] [µM] | TGI [5] [µM] | TGI [6] [µM] | TGI [7] [µM] | TGI [8] [µM] | TGI [9] [µM] | TGI [10] [µM]
1 | COc1ccc(C2=Nc3cc(C)c(C)cc3NC(c3ccccc3)C2)cc1 (centres undefined) | > 100 | > 100 | > 100 | > 100 | > 100 | > 100 | > 100 | > 100 | > 100 | > 100
2 | CC1C(=O)N(c2ccccc2)NC12CCCc1ccccc12 (centres undefined) | > 100 | > 100 | > 100 | – | > 100 | > 100 | > 100 | > 100 | > 100 | > 100
3 | Cc1cc(S(=O)(=O)N/C(=C(\C#N)C(=O)c2ccc(Cl)cc2)[n+]2ccc(N(C)C)cc2)c([S-])cc1Cl | – | > 100 | > 100 | > 100 | > 100 | > 100 | – | > 100 | > 100 | > 100
4 | CC(=C(c1ccccc1)c1ccccc1)N1C(=O)CC(=O)N1C | > 100 | > 100 | > 100 | – | > 100 | > 100 | > 100 | 31.5 | > 100 | > 100
5 | COc1ccc(N2C(=O)CC(=O)N(C(=O)COc3ccc(OCC(=O)N4C(=O)CC(=O)N(c5ccc(OC)cc5)C4=S)cc3)C2=S)cc1 | > 100 | – | > 100 | > 100 | > 100 | > 100 | > 100 | > 100 | > 100 | –
6 | C[N+](C)(C)c1ccc(C(N)C(=O)O)cc1 (centres undefined) | > 100 | – | > 100 | > 100 | > 100 | > 100 | > 100 | > 100 | > 100 | > 100
7 | OCCO/N=C1\C(c2c(O)[nH]c3ccccc23)=Nc2ccccc21 | > 100 | > 100 | > 100 | > 100 | > 100 | > 100 | > 100 | > 100 | > 100 | > 100
8 | COc1cc([C@@H]2c3cc4c(cc3[C@@H](c3c(O)cc(O)c5c3O[C@H](c3ccc(O)c(O)c3)[C@@H](O)C5)[C@H]3COC(=O)[C@H]23)OCO4)cc(OC)c1OC | > 100 | > 100 | – | > 100 | > 100 | 3.64 | 3.81 | – | 3.11 | > 100
9 | COc1c(O)c(C=O)c2c(O)c(-c3c(C)cc4c(C(C)C)c(OC)c(O)c(C=O)c4c3O)c(C)cc2c1C(C)C | 16.5 | 12.8 | 9.69 | – | 22.2 | 12.2 | 29 | 11.1 | – | 16.4
10 | CN(C)c1nc(N)nc(CS)n1 | > 100 | > 100 | > 100 | > 100 | > 100 | > 100 | > 100 | > 100 | > 100 | > 100
11 | Cc1cccc(Nc2nn3c(=O)c4c5c(sc4nc3s2)CCCC5)c1 | > 100 | > 100 | > 100 | > 100 | > 100 | > 100 | > 100 | > 100 | > 100 | > 100
